How the values were obtained:
USP1 = assay: In vitro deubiquitination assay; format: biochemical, human; conditions: purified USP1 and ubiquitinated ID2 from 293T cells
Experimental: 293T cells were transfected with USP1-Flag, USP1-[…]-Flag or ID2-Flag and HA-ubiquitin in separate batches. Ubiquitinated ID2-Flag was immunoprecipitated as described above from SDS-boiled lysates. USP1 and USP1 […] were immunoprecipitated with Flag M2-agarose beads following lysis in NP-40 lysis buffer. All samples were eluted from beads with 500 μg/ml 3×Flag peptide (Sigma). Samples were recombined in deubiquitination buffer (20 mM HEPES, 20 mM NaCl, 100 μg/ml BSA, 500 μM EDTA, 1 mM DTT, pH=8.3) and incubated for the indicated times at room temperature. Ubiquitin levels were assessed by immunoblot with HA antibodies.

p21 = p21 and p53 expression in U2-OS cells; format: cell-based, human; conditions: etoposide treatment
Experimental: U2-OS, HOS, SJSA, SAOS, or MG-63 cells were grown to 10-25% confluence and transfected with the plasmids indicated in combination with the marker plasmid pMACS using FuGENE 6 (Sigma).
Transfected cells were sorted with MACS-select H-2K^k microbeads (Miltenyi Biotec). RNA was extracted from cultured or sorted transfected cells with Qiagen RNeasy Mini kits. Protein was extracted from sorted or cultured cells via lysis in NP-40 buffer (1% NP-40, 120 mM NaCl, 50 mM Tris, pH=7.4, 1 mM EDTA) supplemented with protease inhibitor cocktail I and phosphatase inhibitor cocktails 1 and 2 (Calbiochem). Lysates were clarified by centrifugation at 15,000×G for 10 minutes prior to analysis. Protein content was normalized by BCA protein assay (Thermo Scientific). For dual shRNA/siRNA experiments, cells were transfected with DNA expression vectors via Fugene and subsequently transfected with control siRNA (sense-5′-[…]-3′ (SEQ ID NO:20)) or siRNA targeting p21 (5′-[…]-3′ (SEQ ID NO:21)) via nucleofection with program X-001 in nucleofection solution V (Lonza). DT-40 cells were transfected by nucleofection with program B-023 in nucleofection solution T (Lonza).
Rat monoclonal antibodies were raised against the C-terminal 100 amino-acids of human USP1 or WDR48 to produce the monoclonal USP1 antibody 5E10 and WDR48 antibody 9F10. […]

In the case of CCN1C(=O)C=CC1=O [N-ethylmaleimide], the “decrease in ID2 ubiquitination by USP1” value (USP1) was “sensitive”.

COc1cc([C@@H]2c3cc4c(cc3[C@@H](O[C@@H]3O[C@@H]5CO[C@@H](C)O[C@H]5[C@H](O)[C@H]3O)[C@H]3COC(=O)[C@H]23)OCO4)cc(OC)c1O [etoposide] was tested, and the p21 induction (p21) was “induced”.
